Data on 20 compounds can be found in paper PMC10388327, “Dual Piperidine-Based Histamine H3 and Sigma-1 Receptor Ligands in the Treatment of Nociceptive and Neuropathic Pain” (Journal of Medicinal Chemistry, 2023).

The nature of data set [1]: pKa determination by potentiometric titration. The data set is classed as physicochemical. Particulars: for pKa: aqueous solution, experimental, potentiometric titration. The protocol:
In addition, we tested the amino alcohol fragments of these compounds to carefully monitor the influence of individual protonated nitrogen atoms on the obtained pKa values (Figure 4). […] Based on a previously modified potentiometric procedure,[27],[28] a series of titrations were performed, and the pKa values were determined using the Kostrowicki and Liwo algorithm.[29],[30] […] That explains the surprising result of free base crystallization attempts where iodide salt was obtained instead of the neutral form. On the other hand, in the same environment, KSK94 exists in two forms: the monoprotonated form [HL^+] (20.56%) and the free ligand [L] (77.72%, Figure 5). […] KSK68 can be characterized as a basic ligand with pKa1 = 4.9 (pyridine N) and pKa2 = 8.4 (piperidine N). The pKa values are consistent with those determined by the same procedure for the corresponding amino alcohol 3-(4-(pyridin-4-yl)piperidin-1-yl)propan-1-ol (Figure 4). […] A similarly low pKa2 value for the N7 piperazine nitrogen atom was also determined for the corresponding amino alcohol 3-(4-(pyridin-4-yl)piperazin-1-yl)propan-1-ol (Figure 4), which is in agreement with the value obtained for 1-phenyl-4-methyl piperazine reported in the literature.[31] […] The lowest value was determined for 4-nitrophenyl, and the highest was for 2-methylphenyl derivatives.[32]
The potentiometric microtitration was performed in a thermostated 20 mL cell using a CerkoLab microtitration unit fitted with a pH electrode (Hydromet ERH-13-6). The electrode was calibrated with the use of buffer solutions: pH = 4.00, 7.00, and 10.00. Titrant T (0.1 M KOH) was standardized according to the general analytical procedure and protected from carbon dioxide. Double distilled water with a conductivity of about 0.18 mS/cm was used to prepare all aqueous solutions. DMSO (HPLC grade, 99.5%) was supplied by Sigma Aldrich. The concentration of the titrant solution (D) was 0.0025–0.005 M. The solubilization procedure was follows: The appropriate amount of KSK compound was dissolved in 1 mL 0.1 M HCl and 1 mL DMSO to prepare a 25 mL stock solution. The developed solubilization system can be recommended for poorly soluble derivatives. The analytical procedure was a follows: volume V0 = 4.5 mL of titrant D was titrated with 0.1 M titrant T using the CerkoLab System equipped with a 5 mL syringe pump.

Another data set deals with T1, sigma-2 receptor (σ2R) (Rattus norvegicus, UniProt Q5U3Y7).
T1 construct: The thawed membrane preparation of rat liver was incubated; from tissue; host or cells: Sprague-Dawley rat liver membranes
T1 sequence (Q5U3Y7 1-176): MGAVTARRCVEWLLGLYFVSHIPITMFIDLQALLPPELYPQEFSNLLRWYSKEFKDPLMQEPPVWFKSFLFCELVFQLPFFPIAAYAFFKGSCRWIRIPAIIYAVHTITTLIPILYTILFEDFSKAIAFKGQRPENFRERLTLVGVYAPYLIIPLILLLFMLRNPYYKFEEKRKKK
The data set can be described thus: σ2R radioligand binding ([3H]DTG). Particulars: read-out: σ2R Ki [nM] x̄ [CI 95%]; mean [CI 95%].

The target in data set [2] is T2, sigma-1 receptor (σ1R) (Cavia porcellus, UniProt Q60492).
T2 construct: The thawed membrane preparation of the guinea pig brain cortex was incubated; from tissue; host or cells: male Dunkin-Hartley guinea pig brain cortex membranes
T2 sequence (Q60492 whole entry): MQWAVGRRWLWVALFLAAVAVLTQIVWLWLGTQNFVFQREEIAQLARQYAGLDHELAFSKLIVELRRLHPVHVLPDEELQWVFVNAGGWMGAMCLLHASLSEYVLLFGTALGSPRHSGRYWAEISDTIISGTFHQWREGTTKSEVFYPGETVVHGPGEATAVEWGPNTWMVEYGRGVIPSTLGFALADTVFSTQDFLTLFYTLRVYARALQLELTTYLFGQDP
Briefly: σ1R radioligand binding ([3H](+)-pentazocine). Further details: species or system guinea pig. The settings on record: read-out: σ1R Ki [nM] x̄ [CI 95%]; mean [CI 95%].

The test system of data set [3] is sigma-1 receptor (σ1R). The data set can be described thus: σ1R radioligand binding ([3H](+)-pentazocine). Particulars: ratio of σ2R Ki to σ1R Ki. Further details: species or system guinea pig.
In data set [4] the target is T3, human recombinant histamine H3R (Homo sapiens, UniProt Q9Y5N1).
T3 construct: expressed in transfected cells
T3 sequence (Q9Y5N1 whole entry): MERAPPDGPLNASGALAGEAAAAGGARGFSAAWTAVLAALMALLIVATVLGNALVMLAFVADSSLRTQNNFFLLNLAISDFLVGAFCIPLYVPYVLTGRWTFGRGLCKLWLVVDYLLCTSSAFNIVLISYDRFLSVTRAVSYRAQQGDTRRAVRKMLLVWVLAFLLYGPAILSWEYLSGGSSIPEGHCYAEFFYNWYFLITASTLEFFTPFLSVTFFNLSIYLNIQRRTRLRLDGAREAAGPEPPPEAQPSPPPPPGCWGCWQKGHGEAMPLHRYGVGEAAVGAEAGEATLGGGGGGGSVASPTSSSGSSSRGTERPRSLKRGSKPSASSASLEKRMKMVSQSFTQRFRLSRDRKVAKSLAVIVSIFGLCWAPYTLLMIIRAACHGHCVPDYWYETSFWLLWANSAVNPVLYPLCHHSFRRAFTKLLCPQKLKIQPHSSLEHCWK
Briefly: hH3R radioligand binding ([3H]Nα-methylhistamine depletion assay). Particulars: read-out: hH3R Ki [nM] x̄ [CI 95%]; mean [CI 95%]; HEK-293 cells.

In the next data set the test system is mice. Briefly: loperamide-induced antinociception (paw pressure, struggle response latency). The data set is classed as in vivo, Female CD1 mice. Particulars: for reversal of potentiation of loperamide-induced antinociception by S1RA and 12: PRE-084 75 μg i.pl., naloxone-methiodide 2 mg/kg s.c.
Data set [5] in a line: parallel artificial membrane permeability assay (PAMPA). Particulars: 100 μM in PBS pH 7.4, RT, read-out: Pe (permeability coefficient). The data set is classed as in vitro ADME. In general terms: PAMPA measures passive passage across an artificial lipid membrane.
[6] abbreviates: Figure 5, species distribution from titration curves.
Setting [7] is: aqueous solution at physiological pH.

Counter-ions that a name gives are not always drawn. Like-named read-outs stand apart in the source and are kept apart here.

For `OCCCN1CCN(c2ccncc2)CC1` [3-(4-(pyridin-4-yl)piperazin-1-yl)propan-1-ol, reference compound], the results for the pKa in data set [1] (read-out: pKa1), in data set [1] (read-out: pKa2) and in data set [1] (read-out: pKa3) were 6.1, 1 and 8.82, respectively.
In the case of `OCCCN1CCC(c2ccncc2)CC1` [3-(4-(pyridin-4-yl)piperidin-1-yl)propan-1-ol, reference compound], the pKa in data set [1] (read-out: pKa1) was found to be 4.91; in data set [1] (read-out: pKa2), 8.84.
Take `OCCCN1CCNCC1` [3-(piperazin-1-yl)propan-1-ol, reference compound]: the pKa amounted to 4.52 in data set [1] (read-out: pKa1) and 9.14 in data set [1] (read-out: pKa2).
Take `OCCCN1CCCCC1` [3-(piperidin-1-yl)propan-1-ol, reference compound]: in data set [1] (read-out: pKa), the pKa worked out at 9.73.
As for `CC1CCCN(CCCOc2ccc(-c3ccccc3)cc2)C1` (stereo not drawn) [Compound 1, 1-(3-([1,1′-Biphenyl]-4-yloxy)propyl)-3-methylpiperidine Oxalate], the results for the Ki (at sigma-2 receptor (σ2R); at sigma-1 receptor (σ1R) [2]; in data set [4]) were 17 nM, 1.5 nM and 31 nM, respectively. For the same compound, in the data set with sigma-1 receptor (σ1R) [3], the σ2/σ1 ratio was found to be 11.3.
Take `CC1CCN(CCCOc2ccc(-c3ccccc3)cc2)CC1` [Compound 2, 1-(3-([1,1′-Biphenyl]-4-yloxy)propyl)-4-methylpiperidine Oxalate]: the results for the Ki (at sigma-2 receptor (σ2R); on sigma-1 receptor (σ1R) [2]; in data set [4]) were 16 nM, 2.4 nM and 10.3 nM, respectively. The σ2/σ1 ratio with sigma-1 receptor (σ1R) [3] is 6.7.
For `c1ccc(-c2ccc(OCCCN3CCCC3)cc2)cc1` [Compound 4, 1-(3-([1,1′-Biphenyl]-4-yloxy)propyl)pyrrolidine Oxalate], the results for the Ki (at sigma-2 receptor (σ2R); on sigma-1 receptor (σ1R) [2]; in data set [4]) were 65 nM, 24 nM and 19.5 nM, respectively. In addition, the σ2/σ1 ratio in the data set with sigma-1 receptor (σ1R) [3] turned out to be 2.7.
On to `N#Cc1ccc(-c2ccc(OCCCN3CCCCC3)cc2)cc1.O=C(O)C(=O)O` [Compound 5, 4′-(3-(Piperidin-1-yl)propoxy)-[1,1′-biphenyl]-4-carbonitrile Oxalate], for which the Ki came to 47 nM on sigma-2 receptor (σ2R) and 28 nM at sigma-1 receptor (σ1R) [2]. Also, the σ2/σ1 ratio in the data set with sigma-1 receptor (σ1R) [3] was 1.7.
For the compound `c1ccc(Oc2ccc(OCCCN3CCCCC3)cc2)cc1` [Compound 6, 1-(3-(4-Phenoxyphenoxy)propyl)piperidine Oxalate], the Ki is 103 nM at sigma-2 receptor (σ2R), 18 nM on sigma-1 receptor (σ1R) [2] and 2.7 nM in data set [4]. Besides, in the data set with sigma-1 receptor (σ1R) [3], the σ2/σ1 ratio was 5.7.
Consider `c1ccc(Cc2ccc(OCCCN3CCCCC3)cc2)cc1` [Compound 8, 1-(3-(4-Benzylphenoxy)propyl)piperidine Oxalate], for which the Ki at sigma-2 receptor (σ2R) stood at 47 nM; at sigma-1 receptor (σ1R) [2], 5.5 nM. Also, the σ2/σ1 ratio in the data set with sigma-1 receptor (σ1R) [3] was 8.5.
As for `c1ccc(-c2ccc(OCCCCN3CCCCC3)cc2)cc1` [Compound 9, 1-(4-([1,1′-Biphenyl]-4-yloxy)butyl)piperidine Oxalate], the Ki stood at 33 nM at sigma-2 receptor (σ2R), 95 nM at sigma-1 receptor (σ1R) [2] and 22 nM in data set [4]. In the data set on sigma-1 receptor (σ1R) [3], the σ2/σ1 ratio turned out to be 0.3.
`c1ccc(Oc2ccc(OCCCN3CCC(c4ccncc4)CC3)cc2)cc1` [Compound 13, 4-(1-(3-(4-Phenoxyphenoxy)propyl)piperidin-4-yl)pyridine Oxalate]: the Ki at sigma-2 receptor (σ2R) is 4 nM; at sigma-1 receptor (σ1R) [2] it was 5.6 nM; in data set [4], 24.2 nM. In the data set on sigma-1 receptor (σ1R) [3], the σ2/σ1 ratio is 0.7.
In the case of `c1ccc(Nc2ccc(OCCCN3CCC(c4ccncc4)CC3)cc2)cc1` [Compound 14, N-Phenyl-4-(3-(4-(pyridin-4-yl)piperidin-1-yl)propoxy)aniline Oxalate], the Ki at sigma-2 receptor (σ2R) came to 29 nM; on sigma-1 receptor (σ1R) [2], 3.3 nM; in data set [4], 69 nM. In addition, the σ2/σ1 ratio in the data set on sigma-1 receptor (σ1R) [3] is reported as 8.8.
With `c1ccc(Cc2ccc(OCCCN3CCC(c4ccncc4)CC3)cc2)cc1` [Compound 15, 4-(1-(3-(4-Benzylphenoxy)propyl)piperidin-4-yl)pyridine Oxalate], the Ki on sigma-2 receptor (σ2R) was 9.9 nM; at sigma-1 receptor (σ1R) [2] it was 2.8 nM; in data set [4], 76.1 nM. Moreover, the σ2/σ1 ratio with sigma-1 receptor (σ1R) [3] was determined as 3.5.
Take `CC(C)(C)c1ccc(OCCCCN2CCN(c3cnccn3)CC2)cc1` [Compound 16, 2-(4-(4-(4-(tert-Butyl)phenoxy)butyl)piperazin-1-yl)pyrazine Oxalate]: the Ki at sigma-2 receptor (σ2R) was found to be 27 nM; on sigma-1 receptor (σ1R) [2], 7.6 nM. In addition, the σ2/σ1 ratio with sigma-1 receptor (σ1R) [3] is reported as 3.6.
Regarding `N#Cc1ccc(-c2ccc(OCCCN3CCN(c4ccncc4)CC3)cc2)cc1` [KSK94], the “pK of equilibrium H2L+2 = H+ + HL+” value in data set [1] (setting [6]) is on record as 6.25. In addition, the “pK of equilibrium HL+ = H+ + L0” value in data set [1] (setting [6]) turned out to be 6.65. In data set [1] (setting [7]), the “free ligand [L]” value is listed as 77.72%. The “monoprotonated form [HL+]” value in data set [1] (setting [7]) is 20.56%. The pKa in data set [1] (read-out: pKa1) is 6.25; in data set [1] (read-out: pKa2) it was approximately 1; in data set [1] (read-out: pKa3) it was 6.65.
Turning to `Cl.O=C(OCCN1CCOCC1)C1(c2ccccc2)CCCCC1` [PRE-084, 2-[4-morpholinethyl]1-phenylcyclohexanecarboxylate hydrochloride], the “reversal of potentiation of loperamide-induced antinociception by S1RA and 12” value in the data set on mice was “markedly reverse the effect of these compounds on loperamide-induced antinociception”.
Turning to `CN(C)C(=O)C(CCN1CCC(O)(c2ccc(Cl)cc2)CC1)(c1ccccc1)c1ccccc1` [loperamide], the “effect of loperamide alone on struggle response latency” value in the data set on mice (4 mg/kg s.c.) is listed as “minimal (nonsignificant) increase in the struggle response latency”.
As for `C=CC[N+]1(C)CC[C@]23c4c5ccc(O)c4O[C@H]2C(=O)CC[C@@]3(O)[C@H]1C5` (stereo partly drawn) [naloxone-methiodide], in the data set with mice, the “reversal of potentiation of loperamide-induced antinociception by S1RA and 12” value is “the effect of S1RA and 12 was also reversed”.
Regarding `CCN1CCCC1CNC(=O)c1cc(S(N)(=O)=O)ccc1OC` (stereo not drawn) [sulpiride, reference compound], the Papp at 5 h, 100 µM in data set [5] came out at 0.05 ×10⁻⁶ cm/s.

Broadly, the Ki is the equilibrium dissociation constant of an inhibitor or competing ligand from its target.
